Columns and labels:
Format in all cases: cell-based, human
End1/E6E7 cells [1] = test: ROS generation by DCFH-DA flow cytometry
Protocol: (§1) To assess the inhibitory effect of fraxetin on ROS generation in endometrial cells, the inventors used flow cytometry to measure ROS levels. In brief, endometriosis cells were stained with DCFH-DA (final concentration 10 μM) for 30 minutes and treated with 50 μM fraxetin in experimental groups, with or without 2 mM N-acetylcysteine (NAC; Cat No. A0737, Sigma), in a 37° C. incubator. Afterward, the cells were washed with PBS, and ROS levels were detected by measuring fluorescence DCF via flow cytometry.

VK2/E6E7 cells [2] = test: ROS generation by DCFH-DA flow cytometry
Protocol: as §1

End1/E6E7 cells [3] = test: Western blot analysis of protein expression and phosphorylation
Protocol: To analyze protein expression related to the development of endometriosis following fraxetin treatment, the inventors conducted western blot analysis.
Briefly, endometrial cells were treated with fraxetin in a dose-dependent manner or in combination with signaling pathway inhibitors. Total proteins were extracted from the treated cells, and protein quantification was performed using the Bradford protein assay (Bio-Rad, Hercules, CA, USA). The extracted proteins were then denatured at 95° C. for 5 minutes and subjected to electrophoresis on a 10% SDS/PAGE gel before being transferred to a nitrocellulose membrane. The membrane was subsequently incubated with primary and secondary antibodies, and target protein expression was analyzed using chemiluminescence detection reagents (Supersignal West Pico, Pierce, Rockford, IL, USA) with the ChemiDoc EQ system and Quantity One software (Bio-Rad).

End1/E6E7 cells [4] = test: Cell viability with signaling pathway inhibitors alone or combined with fraxetin; conditions: wortmannin 1 μM, U0126 20 μM
Protocol: (§2) The AKT inhibitor wortmannin (1 μM), ERK1/2 inhibitor U0126 (20 μM), and JNK inhibitor SP600125 (20 μM) were used.

VK2/E6E7 cells [5] = test: as above; conditions: wortmannin 1 μM, U0126 20 μM
Protocol: as §2

End1/E6E7 cells [6] = test: tiRNA expression by real-time PCR; conditions: End1/E6E7, inhibitor 40 nM transfected
Protocol: (§3) To confirm the expression of tiRNA (tRNA-derived stress-induced RNAs) associated with the development of endometriosis, the inventors conducted real-time PCR.
(§4) First, information on candidate tiRNA sequences and mature tRNA sources was obtained from MINTbase (https://cm.jefferson.edu/MINTbase/). miRNA CDNA synthesis was performed using a cDNA kit (Agilent Technologies) to confirm tiRNA expression, with U6 snRNA used for normalization. For transfection of the tiRNA^His GTG inhibitor (5′-AACCGAGAGUACUAACCACUAUACGAUCACCGC-3′) (40 nM), Lipofectamine 2000 was used in Opti-MEM.

VK2/E6E7 cells [7] = test: tiRNA expression by real-time PCR; conditions: VK2/E6E7, inhibitor 40 nM transfected
Protocol: as §3, §4

End1/E6E7 cells [8] = test: BrdU cell proliferation assay; conditions: End1/E6E7, 48 hours
Protocol: (§5) To examine the effects of fraxetin on cell proliferation, the inventors performed a BrdU cell proliferation assay.
(§6) First, 5×10^3 cells of VK2/E6E7, End1/E6E7, and T-HESC were each distributed in 100 μL of medium in 96-well plates.
(§7) Fraxetin was then administered in a dose-dependent manner (0μM, 5 μM, 10 μM, 20 uM, 50 μM, 100 uM) and cultured for 48 hours, followed by the BrdU assay using a BrdU kit (Cat No: 1167229001, Roche) according to the manufacturer's instructions.
(§8) After 48 hours of incubation, 10 μM BrdU (Bromodeoxyuridine) was added to each well and incubated at 37° C. in a 5% CO2 incubator for 2 hours. The cells were then fixed, reacted with anti-BrdU-POD solution at room temperature for 90 minutes, and washed three times. Finally, 100 μL of 3, 3′, 5, 5′-tetramethylbenzidine substrate was added, and absorbance was measured at wavelengths of 370 nm and 492 nm to analyze cell proliferation.

VK2/E6E7 cells [9] = test: BrdU cell proliferation assay; conditions: VK2/E6E7, 48 hours
Protocol: as §5, §6, §7, §8

End1/E6E7 cells [10] = test: Apoptosis by Annexin V and propidium iodide staining; conditions: End1/E6E7, with tiRNA^HisGTG inhibitor
Protocol: (§9) To assess the apoptosis-inducing effect of fraxetin in endometrial cells, the inventors used a FITC Annexin V Apoptosis Detection Kit I (BD Sciences).
(§10) First, VK2/E6E7 and End1/E6E7 cells were cultured in 6-well plates, treated with fraxetin in a dose-dependent manner (0 μM, […], 10 μM, 20 µM, 50 μM, 100 μM), and incubated for 48 hours at 37° C. in a 5% CO2 incubator. The cells were then detached using trypsin, washed with PBS, and mixed slowly with 1 mL of 1X binding buffer. After centrifugation, the cell pellet was resuspended in 200 μL of 1X binding buffer. The suspension (100 μL) was transferred to a 1.5 mL brown tube, and 5 μL of Annexin V and PI (propidium iodide) were added, followed by staining at room temperature for 15 minutes. After adding 400 μL of 1X binding buffer, the stained solution was transferred to a 5 mL FACS tube, and the number of apoptotic cells was measured by analyzing fluorescence intensity using flow cytometry.

VK2/E6E7 cells [11] = test: as above; conditions: VK2/E6E7, with tiRNA^HisGTG inhibitor
Protocol: as §9, §10

VK2/E6E7 cells [12] = test: Mitochondrial membrane potential by JC-1 staining; conditions: VK2/E6E7, with tiRNA^HisGTG inhibitor
End1/E6E7 cells [13] = test: Mitochondrial membrane potential by JC-1 staining; conditions: End1/E6E7, with tiRNA^HisGTG inhibitor
Protocol: To examine changes in mitochondrial membrane potential (MMP) in endometrial cells induced by fraxetin, the inventors used a mitochondria staining kit (Cat no: CS0390, Sigma-Aldrich) to measure MMP.
In brief, End1/E6E7 and […] endometrial cell lines were cultured in 6-well plates, treated with fraxetin in a dose-dependent manner (0 μM, 5 μM, 10 μM, 20 μM, 50 μM, 100 μM), and incubated at 37° C. in a 5% CO2 incubator for 48 hours. Afterward, the cells were detached using trypsin, centrifuged to obtain cell pellets, resuspended in JC-1 staining solution, and incubated at 37° C. in a 5% CO2 incubator for 20 minutes. The stained cells were centrifuged again, washed with 1X JC-1 staining buffer, and analyzed using flow cytometry to assess changes in mitochondrial membrane potential.

CC(=O)N[C@@H](CS)C(=O)O [NAC, N-acetylcysteine, reference compound]
fraxetin-induced increase of ROS generation under co-treatment (End1/E6E7 cells [1]; End1/E6E7, 2 mM NAC): mitigated
fraxetin-induced increase of ROS generation under co-treatment (VK2/E6E7 cells [2]; VK2/E6E7, 2 mM NAC): mitigated

N#CC(=C(/N)Sc1ccccc1N)/C(C#N)=C(\N)Sc1ccccc1N [U0126]
S6 phosphorylation, combined with fraxetin compared to fraxetin alone (End1/E6E7 cells [3]; End1/E6E7, inhibitor 20 μM): further downregulated
cell viability, combined treatment with fraxetin compared to inhibitor alone (End1/E6E7 cells [4]): marked decrease
cell viability, combined treatment with fraxetin compared to inhibitor alone (VK2/E6E7 cells [5]): marked decrease

C[C@]12CCC3=C4CCC(=O)C=C4CC[C@H]3[C@@H]1CC[C@@]2(O)CC#N [dienogest, reference compound]
relative ROS generation (End1/E6E7 cells [1]; End1/E6E7, Example 7 comparison fraxetin vs dienogest): did not show significant changes
relative ROS generation (VK2/E6E7 cells [2]; VK2/E6E7, Example 7 comparison fraxetin vs dienogest): did not show significant changes

COC[C@H]1OC(=O)c2coc3c2[C@@]1(C)C1=C(C3=O)[C@@H]2CCC(=O)[C@@]2(C)C[C@H]1OC(C)=O [wortmannin, reference compound]
JNK phosphorylation (End1/E6E7 cells [3]; End1/E6E7, wortmannin 1 μM): no significant effect

tiRNA^HisGTG inhibitor: tiRNA^His GTG inhibitor (5′-AACCGAGAGUACUAACCACUAUACGAUCACCGC-3′), 40 nM, transfected with Lipofectamine 2000 (AACCGAGAGUACUAACCACUAUACGAUCACCGC; chemistry not given here) [reference compound]
tiRNA^HisGTG mRNA expression (End1/E6E7 cells [6]): decreased
tiRNA^HisGTG mRNA expression (VK2/E6E7 cells [7]): decreased
cell proliferation, sequential treatment with fraxetin (End1/E6E7 cells [8]): decreased
cell proliferation, sequential treatment with fraxetin (VK2/E6E7 cells [9]): decreased
fraxetin-induced apoptosis (End1/E6E7 cells [10]): inhibited
fraxetin-induced apoptosis (VK2/E6E7 cells [11]): inhibited
fraxetin-induced MMP loss (VK2/E6E7 cells [12]): significantly mitigated
fraxetin-induced MMP loss (End1/E6E7 cells [13]): significantly mitigated

— patent publication US20250302799A1, “PHARMACEUTICAL COMPOSITION CONTAINING FRAXETIN FOR PREVENTION OR TREATMENT OF ENDOMETRIOSIS” (Research & Business Foundation Sungkyunkwan University, priority 2024, published 2025)
